Results taken from patent publication US7172875B2, “Identifying inhibitors of intracellular protein fibrillization” (The Ohio State University Research Foundation, priority 2003, dated 2007).
Values belong to the molecule of their own block, whether it stands above or below them.

How the values were obtained:
α-synuclein [1] = target: T1, α-synuclein (Homo sapiens, UniProt P37840); test: α-synuclein polymerization, electron microscopy; type: biochemical; conditions: 37° C.; standard polymerization conditions
T1 construct: His-tag; made in house
Experimental: (§1) α-synuclein Polymerization Assays. Under standard conditions, α-synuclein (4–70 μM) was incubated with AA or other polymerization inducers (25–3000 μM) in Assembly Buffer (10 mM HEPES, pH 7.4, 100 mM NaCl, 5 mM DTT) at 37° C. for 3–26 h, without agitation. Various inducer concentrations were prepared by serial dilution of stock solutions. Control reactions were normalized for 1:1 H2O isopropanol vehicle, which was limited to 5% in all reactions. Samples were processed for electron microscopy and fluorescence spectroscopy as described below.
Electron Microscopy. Aliquots of polymerization reactions were taken, treated with 2% glutaraldehyde (final concentration), mounted on formvar/carbon coated 300 mesh grids, and negatively stained with 2% uranyl acetate as described previously (King et al., 1999). Images were viewed in a Phillips CM 12 transmission electron microscope operated at 65 kV. Random images were captured on film at 8,000–22,000X magnification, digitized at 600 dots-per-inch resolution, and imported into Optimas 6.5.1 for quantification of filament lengths and numbers. Individual filaments were defined as any object greater than 50 nm in its long axis and were counted manually.

α-synuclein [2] = target: T1, α-synuclein; test: α-synuclein polymerization, Thioflavin T assay; type: biochemical
Experimental: as §1
Thioflavin T assay. α-synuclein (4–70 μM) was incubated in Assembly Buffer in the presence of 20 μM thioflavin T, with or without assembly inducers, in 96-well plates. Aggregation was monitored by following thioflavin T fluorescence (λex=[…]; in a Flex Station plate reader (Molecular Devices, Sunnyvale, Calif.).

[3] = CMC measurements for SDS (Corrin-Harkins analysis of CMC depression); type: physicochemical; conditions: literature values
Experimental: CMC values for SDS were estimated at 37° C. using N-phenyl-1-naphthylamine as described previously, except that various concentrations of protamine, histone, α-synuclein, or htau40 were included with the samples. Detergent stock solutions were prepared in 1:1 water isopropanol.
Analytical Methods. Dependence of detergent CMC on protein concentration was fit to the empirical Corrin-Harkins equation: log CMC=−kCH(log n)+bCH (1) where n is the molar concentration of protein or salt and kCH and bCH are constants. The slope of these curves, kCH, approximates the proportion of detergent micelles that are ionized.

htau40 [4] = target: T2, htau40 (Homo sapiens, UniProt P10636); test: Disaggregation of preaggregated tau followed by ThS fluorescence; type: biochemical
T2 construct: His-tag; made in house
T2 sequence (P10636 1-441 isoform P10636-8): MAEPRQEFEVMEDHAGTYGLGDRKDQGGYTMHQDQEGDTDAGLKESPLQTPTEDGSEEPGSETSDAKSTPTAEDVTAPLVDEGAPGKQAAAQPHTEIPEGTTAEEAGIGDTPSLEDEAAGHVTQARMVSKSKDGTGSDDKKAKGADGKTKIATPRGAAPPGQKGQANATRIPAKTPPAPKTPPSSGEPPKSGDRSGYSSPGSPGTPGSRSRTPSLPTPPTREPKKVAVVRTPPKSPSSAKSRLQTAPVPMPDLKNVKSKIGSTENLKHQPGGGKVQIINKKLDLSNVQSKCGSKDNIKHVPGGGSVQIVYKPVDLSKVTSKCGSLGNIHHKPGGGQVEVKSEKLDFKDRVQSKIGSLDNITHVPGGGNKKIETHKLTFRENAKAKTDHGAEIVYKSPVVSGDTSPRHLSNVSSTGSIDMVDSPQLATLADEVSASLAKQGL

htau40 [5] = target: T2, htau40; conditions: synthetic filaments aggregated 3 h with AA; Ref. 12; cited from earlier work
htau40 [6] = target: T2, htau40; test: tau aggregation assay, electron microscopy quantification of filament lengths; type: biochemical; conditions: 10 μM concentration; data not shown
Experimental: Aggregation assays. Under standard conditions, htau40 (4 μM) was incubated without agitation in Assembly Buffer (10 mM HEPES, pH 7.4, 100 mM NaCl, 5 mM dithiothreitol) at 37° C. for up to 168 h in the presence or absence of fibrillization inducer (AA, alkyl sulfate detergents, or carboxylate modified polystyrene beads). All samples incubated for more than 24 h were kept under argon in parafilm-sealed tubes. Samples were processed for assay by electron microscopy as described below.
Electron Microscopy Assays. […] Random images were viewed in a Phillips CM 12 transmission electron microscope operated at 65 kV, captured on film at 8,000–100,000-fold magnification, digitized at 600 dots-per-inch resolution, and imported into Optimas 6.5.1 for quantification of filament lengths and numbers. Individual filaments (defined as any object greater than 50 nm in its long axis with both ends visible in the field of view) were counted manually. […]
[formula] where y is total filament length (50 nm cutoff) measured at time t, yo is total filament length at time zero, t50 is time to 50% maximum fibrillization, A is the maximum total filament length at equilibrium, and kapp is the apparent first order rate constant for fibril growth in units of time^−1. […]

Molecule: Phosphatidylserine
- induction of α-synuclein polymerization seen by electron microscopy (α-synuclein [1]): Abundant filaments and/or filamentous conglomerates

- Thioflavin T signal (α-synuclein [2]; heparin 25–3000 μM saccharide monomer, both forms of heparin): < 600 counts
- induction of α-synuclein fibrillization (Thioflavin T fluorescence) (α-synuclein [2]; α-synuclein 30 μM, 16 h at 37° C.): only weakly
- induction of α-synuclein polymerization seen by electron microscopy (α-synuclein [1]): little measurable polymerization
Molecule: Heparin

Molecule: CCCCCCCCCCCCOS(=O)(=O)[O-].[Na+] [C12H25SO4Na]
- threshold inducer concentration for induction of α-synuclein fibrillization (α-synuclein [2]; 16 h at 37° C., α-synuclein 5-30 μM): approximately 100 μM

Molecule: uteroglobulin^4-14: hydrophobic undecapeptide of neutral net charge with two positive charges; literature values (PSFQRVIETLL; UniProt P11684 25-35, looked up, fragment)
- potency of CMC depression relative to NaCl on a molar basis [3]: 1000 fold

- induction of α-synuclein polymerization seen by electron microscopy (α-synuclein [1]): second in potency
Molecule: phosphatidic acid

- decay slower than dilution in buffer alone (htau40 [4]; 50 μM arachidonic acid): 50 fold
- first order decay rate of ThS fluorescence after 20-fold dilution (htau40 [4]; additive in Assembly Buffer: 50 μM arachidonic acid or 2 μM htau40): 0.5 h⁻¹
- induction of α-synuclein polymerization seen by electron microscopy (α-synuclein [1]): induced
Molecule: CCCCC/C=C\C/C=C\C/C=C\C/C=C\CCCC(=O)O [AA, Arachidonic acid]
- slope constant b of exponential filament length distribution (htau40 [5]): −5.4±0.2 μm^−1

- inhibition of tau fibrillization (htau40 [6]): not inhibitory
Molecule: thioflavin S [ThS]

- induction of α-synuclein polymerization seen by electron microscopy (α-synuclein [1]): least efficient inducer
Molecule: phosphatidylcholine
